Experimental data reported in the Kinase Knowledgebase extract (Sharma et al. 2016).

Key:
[1] = biological target: MAPK14 (UniProt Q16539); test: MAPK14 Kinase Inhibition
[2] = biological target: MAPK14 (UniProt Q16539); test: TNF Inhibition (In Vivo)
[3] = biological target: MAPK14 (UniProt Q16539); test: MAPK14 Kinase Binding Inhibition

Sequence of MAPK14 (Q16539 whole entry, looked up): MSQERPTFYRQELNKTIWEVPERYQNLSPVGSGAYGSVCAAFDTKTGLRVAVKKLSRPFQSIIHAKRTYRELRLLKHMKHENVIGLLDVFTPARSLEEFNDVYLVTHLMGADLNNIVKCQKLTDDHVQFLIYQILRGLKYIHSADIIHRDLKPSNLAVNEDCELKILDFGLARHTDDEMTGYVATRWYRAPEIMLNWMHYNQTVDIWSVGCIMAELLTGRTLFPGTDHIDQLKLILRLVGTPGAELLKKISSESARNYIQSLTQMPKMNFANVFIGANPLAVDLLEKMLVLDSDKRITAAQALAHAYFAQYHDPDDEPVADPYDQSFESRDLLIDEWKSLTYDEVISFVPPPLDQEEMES

SMILES	IC50 [1] [µM]	inhibition [2] [µM]	inhibition [3] [µM]
Fc1ccc(-c2ncn(C3CCNCC3)c2-c2ccnc(Nc3ccc(F)c(F)c3)n2)cc1	< 50	–	–
COc1cccc(Nc2nccc(-c3c(-c4ccc(F)cc4)ncn3C3CCNCC3)n2)c1	< 50	–	–
CN1CCC(n2cnc(-c3ccc(F)cc3)c2-c2ccnc(NCc3cccc4ccccc34)n2)CC1	–	< 50	< 50
CN1CCC(n2cnc(-c3ccc(F)cc3)c2-c2ccnc(NCc3ccc4c(c3)OCO4)n2)CC1	–	–	< 50
CC1(C)CC(n2cnc(-c3ccc(F)cc3)c2-c2ccnc(Nc3ccccc3)n2)CC(C)(C)N1	–	–	< 50
Fc1ccc(Nc2nccc(-c3c(-c4ccc(F)cc4)ncn3C3CCNCC3)n2)cc1	< 50	< 50	–
COc1ccc(Nc2nccc(-c3c(-c4ccc(F)cc4)ncn3C3CCNCC3)n2)cc1	< 50	–	–
Oc1cccc(Nc2nccc(-c3c(-c4ccc(F)cc4)ncn3C3CCNCC3)n2)c1	< 50	–	–
CN1CCC(n2cnc(-c3ccc(F)cc3)c2-c2ccnc(Nc3ccccc3)n2)CC1	–	< 50	< 50
CCOC(=O)N1CCC(n2cnc(-c3ccc(F)cc3)c2-c2ccnc(Nc3ccc(OCc4ccccc4)cc3)n2)CC1	< 50	–	–
CN1CCC(n2cnc(-c3ccc(F)cc3)c2-c2ccnc(Nc3cccc(Br)c3)n2)CC1	–	–	< 50
CN1CCC(n2cnc(-c3ccc(F)cc3)c2-c2ccnc(NCCCN3CCOCC3)n2)CC1	–	–	< 50
COc1ccccc1Nc1nccc(-c2c(-c3ccc(F)cc3)ncn2C2CCNCC2)n1	< 50	–	–
CN1CCC(n2cnc(-c3ccc(F)cc3)c2-c2ccnc(NCCO)n2)CC1	–	< 50	< 50
CN1CCC(n2cnc(-c3ccc(F)cc3)c2-c2ccnc(NC3CC(C)(C)NC(C)(C)C3)n2)CC1	–	–	< 50
CN1CCC(n2cnc(-c3ccc(F)cc3)c2-c2ccnc(NC3CCSCC3)n2)CC1	–	–	< 50
CCOC(=O)N1CCC(n2cnc(-c3ccc(F)cc3)c2-c2ccnc(Nc3cccc(OCc4ccccc4)c3)n2)CC1	< 50	–	–
CCOC(=O)N1CCC(Nc2nccc(-c3c(-c4ccc(F)cc4)ncn3C3CCN(C)CC3)n2)CC1	–	–	< 50
O=C1CCC(n2cnc(-c3ccc(F)cc3)c2-c2ccnc(Nc3ccccc3)n2)CC1	–	< 50	< 50

SMILES	IC50 [1] [µM]	inhibition [2] [µM]	inhibition [3] [µM]
CN1CCC(n2cnc(-c3ccc(F)cc3)c2-c2ccnc(NCCc3c[nH]c4ccc(Cl)cc34)n2)CC1	–	–	< 50
Fc1ccc(-c2ncn(C3CCNCC3)c2-c2ccnc(Nc3cccc(C(F)(F)F)c3)n2)cc1	< 50	–	–
C[S+]([O-])c1ccc(-c2ncn(C3CCNCC3)c2-c2ccnc(Nc3ccccc3)n2)cc1 (stereo not given)	< 50	–	–
CN1CCC(n2cnc(-c3ccc(F)cc3)c2-c2ccnc(NCc3ccccc3)n2)CC1	–	< 50	< 50
CN1CCC(n2cnc(-c3ccc(F)cc3)c2-c2ccnc(NCc3cccc(Cl)c3)n2)CC1	–	< 50	< 50
Fc1ccc(-c2ncn(C3CCNCC3)c2-c2ccnc(Nc3cccc(F)c3)n2)cc1	< 50	< 50	–
Fc1ccc(-c2ncn(C3CCNCC3)c2-c2ccnc(NCCCn3ccnc3)n2)cc1	–	< 50	–
Fc1ccc(cc1)c2ncn(C3CCNCC3)c2c4ccnc(NCCCN5=CNC=C5)n4	–	–	< 50
CN1CCC(n2cnc(-c3ccc(F)cc3)c2-c2ccnc(NC3CCNCC3)n2)CC1	–	–	< 50
Fc1ccc(-c2ncn(C3CCNCC3)c2-c2ccnc(Nc3ccccc3F)n2)cc1	< 50	< 50	–
Oc1ccc(Nc2nccc(-c3c(-c4ccc(F)cc4)ncn3C3CCNCC3)n2)cc1	< 50	–	–
CN1CCC(n2cnc(-c3ccc(F)cc3)c2-c2ccnc(NC3CCN(Cc4ccccc4)CC3)n2)CC1	–	–	< 50
O[C@H]1CC[C@H](n2cnc(-c3ccc(F)cc3)c2-c2ccnc(Nc3ccccc3)n2)CC1	–	–	< 50
Fc1ccc(-c2ncn(C3CCNCC3)c2-c2ccnc(Nc3ccccc3)c2)cc1	–	< 50	< 50
CCOCCCNc1nccc(-c2c(-c3ccc(F)cc3)ncn2C2CCNCC2)n1	–	–	< 50
Fc1ccc(-c2ncn(C3CCNCC3)c2-c2ccnc(Nc3ccccc3)n2)cc1	–	< 50	< 50
CC1(C)CC(n2cnc(-c3ccc(F)cc3)c2-c2ccnc(NCCO)n2)CC(C)(C)N1	–	< 50	< 50
CSc1ccc(-c2ncn(C3CCNCC3)c2-c2ccnc(Nc3ccccc3)n2)cc1	< 50	–	–
NCCNc1nccc(-c2c(-c3ccc(F)cc3)ncn2C2CCNCC2)n1	–	–	50
